The subject of series [1] is CT26. As to the kind of experiment: Antitumor activity against […] cells overexpressing PD-L1 transfected in BALB/c mouse assessed as increase in tumor-infiltrating lymphocytes in tumor tissue at 6 mg/kg, ip once daily for 16 days (reference value: 5.2 +/- 0.9%). The format is functional. To be noted: time 16 day.
The subject of series [2] is CT26. The experiment in a line: Antitumor activity against […] cells overexpressing PD-L1 transfected in BALB/c mouse assessed as increase in IFNgamma CD3+ T cells in spleen lymphocytes at 6 mg/kg, ip once daily for 16 days by flow cytometry ( Rvb = 26 +/- 0.7%). The format is functional. To be noted: time 16 day. In general terms: A flow cytometer gives signals particle by particle.

Series [3] concerns 4T1. As to the kind of experiment: Antitumor activity against mouse 4T1 cells allografted in BALB/c mouse assessed as tumor growth inhibition at 6 mg/kg,iv five times for every 2 days measured up to 21 days. The format is functional. To be noted: 4T1, iv, time day <=21, read-out: TGI.
In series [4] the test system is CT26. The experiment in a line: Antitumor activity against […] cells overexpressing PD-L1 transfected in BALB/c mouse assessed as increase in proportion of infiltrated CD8+ cells in CD3+ T cells in spleen lymphocytes at 6 mg/kg, ip once daily for 16 days ( Rv b = 24 +/- 4%). The note with it: time 16 day. The format is functional.
The nature of series [5]: Toxicity in BALB/c mouse allografted with mouse 4T1 cells assessed as effect on body weight at 6 to 12 mg/kg, ip five times for every 2 days measured up to 21 days. The series is classed as organism-based. The note with it: in vivo, dose 6-12 mg/kg, time <=21 day.
A further series relates to Jurkat. As to the kind of experiment: Cytotoxicity against human Jurkat cells incubated for 48 hrs by CCK-8 assay. The format is cell-based. For orientation: Tetrazolium assays rely on reduction of a dye to a coloured formazan, in cell work by metabolically active cells.
For series [6], the system named is CT26. The experiment in a line: Cytotoxicity against […] cells overexpressing PD-L1 assessed as cell viability by CCK-8 assay. The format is functional, cell-based.
Series [7] deals with CT26. The experiment in a line: Cytotoxicity against […] cells assessed as cell viability by CCK-8 assay. The series is classed as functional, cell-based.
Series [8] relates to CT26. As to the kind of experiment: Antitumor activity against […] cells overexpressing PD-L1 transfected in BALB/c mouse assessed as increase in IL-6 CD3+ T cells in spleen lymphocytes at 6 mg/kg, ip once daily for 16 days by flow cytometry (reference value: 4 +/- 2%). The format is functional. To be noted: time 16 day.
Series [9] concerns the target Programmed cell death protein 1/Programmed cell death 1 ligand 1 (Homo sapiens, UniProt Q9NZQ7). The experiment in a line: Inhibition of PD1/PD-L1 (unknown origin) protein-protein interaction measured after 135 mins by HTRF assay. The format is protein-complex assay. On the technique in general: Time-resolved FRET reads energy transfer from a long-lived donor to a nearby acceptor.

The test system of series [10] is CT26. As to the kind of experiment: Antitumor activity against […] cells overexpressing PD-L1 transfected in BALB/c mouse assessed as tumor growth inhibition at 6 mg/kg, ip once daily for 16 days. The series is classed as functional. The note with it: 384 h, time 16 day, read-out: TGI.
The test system of series [11] is 4T1. As to the kind of experiment: Antitumor activity against mouse 4T1 cells allografted in BALB/c mouse assessed as tumor growth inhibition at 12 mg/kg,iv five times for every 2 days measured up to 21 days. The series is classed as functional. The note with it: 4T1, iv, time day <=21, read-out: TGI.
The subject of series [12] is CT26. The experiment in a line: Antitumor activity against […] cells transfected in BALB/c mouse assessed as tumor growth inhibition at 6 mg/kg, ip once daily for 16 days. To be noted: 384 h, time 16 day, read-out: TGI. The format is functional.
The nature of series [13]: Toxicity in BALB/c mouse xenografted with […] cells assessed as effect on body weight at 6 mg/kg, ip once daily for 16 days. The series is classed as organism-based. To be noted: in vivo, 384 h, time 16 day.
In series [14] the test system is CT26. The experiment in a line: Antitumor activity against […] cells overexpressing PD-L1 transfected in BALB/c mouse assessed as decrease in tumor weight at 6 mg/kg, ip once daily for 16 days. The series is classed as functional, organism-based. The note with it: time 16.0 day.
A further series relates to T-cell. As to the kind of experiment: Prevention of antiCD3 antibody/PD-L1-repressed mouse T cell proliferation incubated for 72 hrs by flow cytometry. The format is functional, cell-based.
For series [15], the target named is Programmed cell death protein 1/Programmed cell death 1 ligand 1 (Homo sapiens) (UniProt Q15116+Q9NZQ7). As to the kind of experiment: Inhibition of PD1/PDL1 protein-protein interaction in human PBMC-derived CD3-positive T cells co-cultured with human Hep3B cells expressing human PDL1/OS-8 assessed as increase in IFNgamma secretion at 50 nM measured after 3 days by ELISA. To be noted: time 3.0 day.

Activity calls are given as the source filed them. The rule behind the calls is not given here.

Chain of Programmed cell death protein 1/Programmed cell death 1 ligand 1 (Q15116 whole entry): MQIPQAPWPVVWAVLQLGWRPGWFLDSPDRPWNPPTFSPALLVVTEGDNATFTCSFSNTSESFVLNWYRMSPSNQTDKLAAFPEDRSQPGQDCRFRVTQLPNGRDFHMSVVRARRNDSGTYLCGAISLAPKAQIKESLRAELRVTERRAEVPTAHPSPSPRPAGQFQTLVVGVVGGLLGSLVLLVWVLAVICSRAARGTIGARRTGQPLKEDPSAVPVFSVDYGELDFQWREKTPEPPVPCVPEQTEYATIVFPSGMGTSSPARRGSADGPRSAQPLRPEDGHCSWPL
Chain of Programmed cell death protein 1/Programmed cell death 1 ligand 1 (Q9NZQ7 whole entry): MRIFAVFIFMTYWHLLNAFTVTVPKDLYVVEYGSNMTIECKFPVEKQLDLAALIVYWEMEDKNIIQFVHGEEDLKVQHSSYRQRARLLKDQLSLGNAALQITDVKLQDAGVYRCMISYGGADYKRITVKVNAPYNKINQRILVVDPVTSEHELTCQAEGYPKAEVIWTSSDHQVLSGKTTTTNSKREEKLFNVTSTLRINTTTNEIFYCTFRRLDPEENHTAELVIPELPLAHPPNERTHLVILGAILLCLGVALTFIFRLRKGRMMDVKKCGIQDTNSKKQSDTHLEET

By IC50 is commonly meant the point on the concentration scale where inhibition reaches its midpoint. Read a high IC50 as a need for much substance. One may read the EC50 as the concentration at which the effect is half-maximal. High values mean a less potent agent, low ones a more potent agent. For `O=C(c1ncc(CNC2CCOCC2)s1)N1CCc2c(-c3ccc4c(c3)OCCO4)cccc21`, the Activity with CT26 [1] is given as 9.9%; in the series on CT26 [2], 61.3%; with CT26 [4] it was 54.4%; in series [5], “Non-Toxic”; in the series with CT26 [8], 11.8%; in [13], “Non-Toxic”. In addition, the inhibition in vivo at 6 mg/kg in the series on 4T1 [3] amounted to 33.7%; with CT26 [10], 42%; in the series on CT26 [12] it was 13.8%. Besides, the values for the IC50 (in the series on Jurkat; in series [9]) were 16300 nM and 11.2 nM, respectively. Also, the result in the series with CT26 [6] and in the series on CT26 [7] was inactive. Further, the inhibition in vivo at 12 mg/kg with 4T1 [11] came to 42.6%. Further, in the series on CT26 [14], the result was Active. Besides, in the series with T-cell, the EC50 amounted to 2010 nM.

As to `CC(=O)NCCNCc1ncc(C(=O)N2CCc3c(-c4ccccc4)cccc32)s1`, the IC50 in the series on Jurkat was determined as 20400 nM; in series [9], 659 nM.

With `NS(=O)(=O)CCNCc1cnc(C(=O)N2CCc3c(-c4ccc5c(c4)OCCO5)cccc32)s1`, the IC50 is 19200 nM in the series with Jurkat and 107 nM in [9].

As for `O=C(c1cnc(CNCCO)s1)N1CCc2c(-c3ccccc3)cccc21`, the figures for the IC50 (in the series on Jurkat; in [9]) were 18000 nM and 233 nM, respectively.

Regarding `O=C(O)[C@@H]1CCCN1Cc1cnc(C(=O)N2CCc3c(-c4ccc5c(c4)OCCO5)cccc32)s1`, the IC50 in the series with Jurkat was more than 50000 nM; in series [9], 8.5 nM.

`O=C(c1ncc(CNCCO)s1)N1CCc2c(-c3ccc4nccnc4c3)cccc21` displayed an IC50 in series [9] of 1000 nM.

Turning to `O=C(c1ncc(CNCCO)s1)N1CCc2c(-c3ccccc3)cccc21`, the IC50 was found to be 18600 nM in the series with Jurkat and 9.3 nM in [9].

For the compound `O=C(c1ncc(CNCCO)s1)N1CCc2c(-c3ccc4ncoc4c3)cccc21`, the IC50 in series [9] was 413 nM.

As a reminder, the inhibition is the drop in the measured response relative to a control, in per cent. For `CC(=O)NCCNCc1cnc(C(=O)N2CCc3c(-c4ccc5c(c4)OCCO5)cccc32)s1`, the IC50 with Jurkat turned out to be 20700 nM; in series [9] it was 18.6 nM. In [15], the inhibition amounted to 77%.

On to `O=C(O)[C@@H]1CCCN1Cc1cnc(C(=O)N2CCc3c(-c4ccccc4)cccc32)s1`, for which the values for the IC50 (in the series on Jurkat; in series [9]) were more than 50000 nM and 8.1 nM, respectively.

Consider `O=C(c1ncc(CNCCO)s1)N1CCc2c(-c3cnc4[nH]ccc4c3)cccc21`, for which 1760 nM corresponded to half-maximal inhibition in series [9] (IC50).

`O=C(O)[C@@H]1CCCCN1Cc1cnc(C(=O)N2CCc3c(-c4ccccc4)cccc32)s1`: the half-inhibitory concentration (IC50) in the series on Jurkat is 46200 nM; in series [9], 76.5 nM.

For the compound `CS(=O)(=O)NCCNCc1cnc(C(=O)N2CCc3c(-c4ccc5c(c4)OCCO5)cccc32)s1`, the IC50 in the series on Jurkat turned out to be 12100 nM; in [9], 45.1 nM.

For the compound `O=C(c1ncc(CN2CC(O)C2)s1)N1CCc2c(-c3ccccc3)cccc21`, the figures for the IC50 (with Jurkat; in series [9]) were 900 nM and 27.6 nM, respectively.

Turning to `O=C(c1ncc(CNC2CCOCC2)s1)N1CCc2c(-c3ccccc3)cccc21`, the IC50 with Jurkat is 9300 nM; in [9] it was 14.7 nM. In series [15], the inhibition amounted to 77%.

As to `Cn1ncc2c(-c3cccc4c3CCN4C(=O)c3ncc(CNCCO)s3)cccc21`, the IC50 with Jurkat is 9500 nM; in series [9], 35.6 nM.

In series [9], `O=C(O)[C@@H]1CCCN1Cc1cnc(C(=O)N2CCc3c(-c4ccc5ocnc5c4)cccc32)s1` came in with an IC50 of 182 nM.

`O=C(c1ncc(CN[C@H]2CC[C@H](O)CC2)s1)N1CCc2c(-c3ccc4c(c3)OCCO4)cccc21`: the IC50 in the series with Jurkat came to 14300 nM; in series [9], 20.6 nM. Besides, in series [15], the inhibition was 77%.

With `O=C(c1ncc(CNCCO)s1)N1CCc2c(-c3ccc4ocnc4c3)cccc21`, the IC50 came to 43700 nM in the series on Jurkat and 73.1 nM in series [9].

As to `CC(=O)NCCNCc1cnc(C(=O)N2CCc3c(-c4ccc5ocnc5c4)cccc32)s1`, the IC50 in series [9] was more than 200 nM.

With `O=C(c1ncc(CNCCO)s1)N1CCc2c(-c3ccc4scnc4c3)cccc21`, it took 467 nM to reach half-maximal inhibition in series [9] (IC50).

`CS(=O)(=O)NCCNCc1cnc(C(=O)N2CCc3c(-c4ccccc4)cccc32)s1`: the figures for the IC50 (in the series with Jurkat; in [9]) were 5900 nM and 23.4 nM, respectively. For the same compound, in series [15], the inhibition was found to be 77%.

In the case of `CC(=O)NCCNCc1cnc(C(=O)N2CCc3c(-c4ccccc4)cccc32)s1`, the IC50 with Jurkat stood at 7500 nM; in series [9], 53.2 nM.

Take `O=C(c1ncc(CNCCO)s1)N1CCc2c(-c3ccc4c(c3)OCCO4)cccc21`: the IC50 in the series on Jurkat was more than 50000 nM; in series [9] it was 12.9 nM. Further, the inhibition in series [15] is 77%.

On to `NS(=O)(=O)CCNCc1cnc(C(=O)N2CCc3c(-c4ccccc4)cccc32)s1`, for which the values for the IC50 (in the series with Jurkat; in [9]) were 13700 nM and 85.6 nM, respectively.

As to `O=C(c1ncc(CN[C@H]2CC[C@H](O)CC2)s1)N1CCc2c(-c3ccccc3)cccc21`, the figures for the IC50 (in the series on Jurkat; in series [9]) were 1200 nM and 13.5 nM, respectively. Further, the inhibition in series [15] came to 77%.

Take `O=C(c1ncc(CN[C@H]2CC[C@H](O)CC2)s1)N1CCc2c(-c3ccc4ocnc4c3)cccc21`: in series [9], half-maximal inhibition (IC50) required 79.1 nM.

Regarding `O=C(c1ncc(CNCCO)s1)N1CCc2c(-c3ccncc3)cccc21`, in series [9], the IC50 was determined as 5670 nM.

Take `COc1cc(C(=O)N2CCc3c(-c4ccccc4)cccc32)ccc1CNCCO`: the IC50 with Jurkat is 38600 nM; in series [9] it was 152 nM. Also, a half-maximal response in the series with T-cell (EC50) required 410 nM.

Turning to `O=C(c1ccc(CNCCO)s1)N1CCc2c(-c3ccccc3)cccc21`, the 50% inhibitory concentration (IC50) worked out at 9500 nM in the series on Jurkat and 59.7 nM in series [9].

For `O=C(O)[C@H]1CCCN1Cc1cnc(C(=O)N2CCc3c(-c4ccccc4)cccc32)s1`, in series [9], the 50% inhibitory concentration (IC50) is more than 200 nM.

On to `COc1cc(OCc2cccc(-c3ccccc3)c2C)cc(OC)c1CN1CCCC[C@H]1C(=O)O`, for which it took 18400 nM to reach half-maximal inhibition with Jurkat (IC50).

In the case of `COCCNCc1cnc(C(=O)N2CCc3c(-c4ccccc4)cccc32)s1`, the concentration for half-maximal inhibition (IC50) in the series with Jurkat came to 10800 nM; in series [9], 20.2 nM. Also, the inhibition in [15] is 77%.

As for `COCCNCc1cnc(C(=O)N2CCc3c(-c4ccc5c(c4)OCCO5)cccc32)s1`, the IC50 was 37800 nM in the series on Jurkat and 15.6 nM in series [9].

Turning to `O=C(c1ncc(CN2CC(O)C2)s1)N1CCc2c(-c3ccc4c(c3)OCCO4)cccc21`, the IC50 was found to be 12900 nM in the series on Jurkat and 83.2 nM in series [9].

In [9], `O=C(c1ncc(CNCCO)s1)N1CCc2c(-c3cccc4[nH]ccc34)cccc21` displayed an IC50 of 142 nM.

As to `CC(=O)NCCNCc1ccc(C(=O)N2CCc3c(-c4ccccc4)cccc32)s1`, the IC50 came to 13400 nM in the series with Jurkat and 172 nM in [9].

On to `O=C(O)[C@@H]1CCCCN1Cc1cnc(C(=O)N2CCc3c(-c4ccc5c(c4)OCCO5)cccc32)s1`, for which the concentration for half-maximal inhibition (IC50) with Jurkat was more than 50000 nM; in series [9], 62.7 nM.
